Measurements reported in patent EP2505659A1, “Methods for the identification of dioxygenase interacting molecules and for the purification of dioxygenase proteins” (CELLZOME AG, priority 2011, dated 2012).
Structures can show the parent of a compound that is named as a salt. Where two headings read alike, the source gives them in different places.

How the values were obtained:
Assay in all cases: Bead competition binding assay, immobilized compound A, K-562, HL-60 and Jurkat nuclear lysates
Settings in all cases: 100 µM free compound A, read-out: Fold change versus DMSO control
FTO = target: T1, FTO (Homo sapiens, UniProt Q9C0B1)
T1 construct: endogenous in cells
T1 sequence (Q9C0B1 whole entry): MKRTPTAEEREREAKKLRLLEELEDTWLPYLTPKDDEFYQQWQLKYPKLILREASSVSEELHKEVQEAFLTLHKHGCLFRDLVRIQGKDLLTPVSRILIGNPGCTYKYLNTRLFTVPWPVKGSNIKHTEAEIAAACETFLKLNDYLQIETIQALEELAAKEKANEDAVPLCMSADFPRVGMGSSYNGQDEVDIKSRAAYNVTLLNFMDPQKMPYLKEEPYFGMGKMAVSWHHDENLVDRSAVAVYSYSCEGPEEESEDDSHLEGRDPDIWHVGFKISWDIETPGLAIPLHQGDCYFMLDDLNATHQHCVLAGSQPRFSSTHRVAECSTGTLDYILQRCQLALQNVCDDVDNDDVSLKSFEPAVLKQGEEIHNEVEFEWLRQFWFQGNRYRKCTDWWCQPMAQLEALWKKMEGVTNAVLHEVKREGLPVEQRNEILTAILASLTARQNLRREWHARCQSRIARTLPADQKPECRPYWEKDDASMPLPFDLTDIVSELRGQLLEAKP
Excerpt: (§1) K562 cells were also purchased from DSMZ (Braunschweig, Germany).
(§2) Table 5: Peptide elution off the LC system

PLOD1 = target: T2, PLOD1 (Homo sapiens, UniProt Q02809)
T2 construct: capturing and identification of dioxygenases from nuclear protein extracts; endogenous in cells
T2 sequence (Q02809 19-727): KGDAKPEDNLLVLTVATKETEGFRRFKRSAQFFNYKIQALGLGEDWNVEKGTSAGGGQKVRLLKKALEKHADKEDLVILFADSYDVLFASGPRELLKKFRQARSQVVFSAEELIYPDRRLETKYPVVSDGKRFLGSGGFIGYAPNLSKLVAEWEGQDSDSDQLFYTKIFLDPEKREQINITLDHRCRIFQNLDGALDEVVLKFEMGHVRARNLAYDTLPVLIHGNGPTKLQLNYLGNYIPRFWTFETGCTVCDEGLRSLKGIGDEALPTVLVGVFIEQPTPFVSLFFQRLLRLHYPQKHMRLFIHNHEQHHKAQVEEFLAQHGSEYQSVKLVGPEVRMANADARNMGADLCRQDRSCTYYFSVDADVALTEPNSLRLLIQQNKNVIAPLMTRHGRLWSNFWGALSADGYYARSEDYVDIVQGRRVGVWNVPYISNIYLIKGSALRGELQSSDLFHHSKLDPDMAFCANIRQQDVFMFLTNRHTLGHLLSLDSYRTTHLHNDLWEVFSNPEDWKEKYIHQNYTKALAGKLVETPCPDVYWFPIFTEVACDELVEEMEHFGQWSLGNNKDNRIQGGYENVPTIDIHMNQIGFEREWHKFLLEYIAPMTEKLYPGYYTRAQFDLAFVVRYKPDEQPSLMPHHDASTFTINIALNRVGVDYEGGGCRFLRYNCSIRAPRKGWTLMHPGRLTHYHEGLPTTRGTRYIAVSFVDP
Excerpt: as §1, §2

ALKBH3 = target: T3, ALKBH3 (Homo sapiens, UniProt Q96Q83)
T3 construct: capturing and identification of dioxygenases from nuclear protein extracts; endogenous in cells
T3 sequence (Q96Q83 1-286): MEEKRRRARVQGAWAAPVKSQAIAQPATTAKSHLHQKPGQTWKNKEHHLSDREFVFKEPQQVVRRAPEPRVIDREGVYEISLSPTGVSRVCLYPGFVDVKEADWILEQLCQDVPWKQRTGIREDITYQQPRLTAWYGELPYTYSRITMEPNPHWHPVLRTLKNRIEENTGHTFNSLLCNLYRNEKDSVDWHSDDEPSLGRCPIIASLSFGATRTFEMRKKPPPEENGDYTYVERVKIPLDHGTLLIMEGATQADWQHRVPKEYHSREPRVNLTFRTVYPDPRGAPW
Excerpt: as §1, §2

P4HA2 = target: T4, P4HA2 (Homo sapiens, UniProt O15460)
T4 construct: capturing and identification of dioxygenases from nuclear lysates of three different cell lines; endogenous in cells; host or cells: K-562, HL-60 and Jurkat nuclear lysates
T4 sequence (O15460 22-535): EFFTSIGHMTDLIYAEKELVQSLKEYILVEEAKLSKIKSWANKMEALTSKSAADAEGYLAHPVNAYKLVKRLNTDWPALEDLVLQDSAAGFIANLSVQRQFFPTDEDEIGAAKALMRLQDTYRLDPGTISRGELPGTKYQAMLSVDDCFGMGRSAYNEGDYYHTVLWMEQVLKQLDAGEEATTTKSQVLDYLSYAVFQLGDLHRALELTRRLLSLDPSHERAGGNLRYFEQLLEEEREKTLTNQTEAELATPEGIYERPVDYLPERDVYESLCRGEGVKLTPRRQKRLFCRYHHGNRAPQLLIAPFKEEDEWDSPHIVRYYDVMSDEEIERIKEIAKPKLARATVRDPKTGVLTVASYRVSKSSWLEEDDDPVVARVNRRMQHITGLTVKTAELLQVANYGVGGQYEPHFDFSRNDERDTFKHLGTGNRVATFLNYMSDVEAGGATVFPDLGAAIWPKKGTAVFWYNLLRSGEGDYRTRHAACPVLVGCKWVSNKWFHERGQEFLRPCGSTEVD
T4 sequence (P07237 18-508 partner): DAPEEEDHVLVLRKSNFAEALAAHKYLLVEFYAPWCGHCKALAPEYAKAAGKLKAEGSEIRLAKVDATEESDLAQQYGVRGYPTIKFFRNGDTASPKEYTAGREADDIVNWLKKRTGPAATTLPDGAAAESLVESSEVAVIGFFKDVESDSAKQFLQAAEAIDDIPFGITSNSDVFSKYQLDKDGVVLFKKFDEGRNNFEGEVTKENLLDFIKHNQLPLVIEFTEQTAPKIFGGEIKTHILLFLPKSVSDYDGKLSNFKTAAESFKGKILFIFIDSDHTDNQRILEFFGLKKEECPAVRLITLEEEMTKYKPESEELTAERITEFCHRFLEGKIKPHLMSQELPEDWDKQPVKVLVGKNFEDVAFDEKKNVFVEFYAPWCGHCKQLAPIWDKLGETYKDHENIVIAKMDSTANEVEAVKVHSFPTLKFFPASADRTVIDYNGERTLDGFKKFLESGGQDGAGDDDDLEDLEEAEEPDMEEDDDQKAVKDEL
Excerpt: as §1, §2
(§3) Seventeen different dioxygenases were identified.

LEPRE1 = target: T5, LEPRE1 (Homo sapiens, UniProt Q32P28)
T5 construct: capturing and identification of dioxygenases from nuclear protein extracts; endogenous in cells
T5 sequence (Q32P28 23-736): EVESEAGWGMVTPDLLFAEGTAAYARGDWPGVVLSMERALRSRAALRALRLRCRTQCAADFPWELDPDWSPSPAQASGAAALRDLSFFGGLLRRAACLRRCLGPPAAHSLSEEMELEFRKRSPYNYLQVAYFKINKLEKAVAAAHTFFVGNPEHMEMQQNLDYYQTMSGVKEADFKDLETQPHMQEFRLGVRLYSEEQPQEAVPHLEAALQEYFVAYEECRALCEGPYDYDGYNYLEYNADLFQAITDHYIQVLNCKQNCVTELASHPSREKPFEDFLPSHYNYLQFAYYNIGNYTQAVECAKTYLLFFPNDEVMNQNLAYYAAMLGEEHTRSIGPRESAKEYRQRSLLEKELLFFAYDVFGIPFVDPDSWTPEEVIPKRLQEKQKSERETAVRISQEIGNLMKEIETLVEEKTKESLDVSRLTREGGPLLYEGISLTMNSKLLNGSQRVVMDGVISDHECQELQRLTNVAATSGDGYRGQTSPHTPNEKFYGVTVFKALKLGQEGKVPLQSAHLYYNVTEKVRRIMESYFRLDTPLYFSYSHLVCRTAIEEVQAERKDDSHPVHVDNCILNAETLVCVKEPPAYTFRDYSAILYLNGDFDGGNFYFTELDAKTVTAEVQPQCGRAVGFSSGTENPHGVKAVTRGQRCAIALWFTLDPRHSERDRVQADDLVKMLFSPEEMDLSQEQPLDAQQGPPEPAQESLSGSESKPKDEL
Excerpt: as §1, §2, §3

TMLHE = target: T6, TMLHE (Homo sapiens, UniProt Q9NVH6)
T6 construct: capturing and identification of dioxygenases from nuclear lysates of three different cell lines; endogenous in cells; host or cells: K-562, HL-60 and Jurkat nuclear lysates
T6 sequence (Q9NVH6 16-421): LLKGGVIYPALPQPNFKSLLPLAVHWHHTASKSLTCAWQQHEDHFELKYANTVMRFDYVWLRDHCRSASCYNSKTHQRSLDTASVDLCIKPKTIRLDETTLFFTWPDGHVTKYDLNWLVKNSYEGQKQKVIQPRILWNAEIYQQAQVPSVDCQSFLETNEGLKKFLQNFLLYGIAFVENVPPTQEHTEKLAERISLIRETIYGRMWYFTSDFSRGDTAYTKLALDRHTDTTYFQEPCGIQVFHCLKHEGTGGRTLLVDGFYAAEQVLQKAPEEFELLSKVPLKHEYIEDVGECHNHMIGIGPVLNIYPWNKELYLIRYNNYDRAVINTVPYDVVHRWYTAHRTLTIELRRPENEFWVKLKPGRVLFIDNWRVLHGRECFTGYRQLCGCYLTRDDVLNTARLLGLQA
Excerpt: as §1, §2, §3

EGLN2 = target: T7, EGLN2 (Homo sapiens, UniProt Q96KS0)
T7 construct: capturing and identification of dioxygenases from nuclear lysates of three different cell lines; endogenous in cells; host or cells: K-562, HL-60 and Jurkat nuclear lysates
T7 sequence (Q96KS0 whole entry): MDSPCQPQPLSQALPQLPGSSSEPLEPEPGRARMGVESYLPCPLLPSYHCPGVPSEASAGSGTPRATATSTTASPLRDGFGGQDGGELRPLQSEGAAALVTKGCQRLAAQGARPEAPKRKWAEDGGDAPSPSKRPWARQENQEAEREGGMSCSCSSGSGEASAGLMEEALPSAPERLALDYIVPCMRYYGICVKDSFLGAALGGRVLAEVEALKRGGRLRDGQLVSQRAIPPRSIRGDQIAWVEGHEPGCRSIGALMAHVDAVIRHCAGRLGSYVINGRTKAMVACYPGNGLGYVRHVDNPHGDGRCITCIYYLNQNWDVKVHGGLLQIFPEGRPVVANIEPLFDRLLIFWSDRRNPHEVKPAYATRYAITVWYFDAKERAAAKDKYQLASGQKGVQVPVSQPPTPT
Excerpt: as §1, §2, §3

OGFOD1 = target: T8, OGFOD1 (Homo sapiens, UniProt Q8N543)
T8 construct: capturing and identification of dioxygenases from nuclear protein extracts; endogenous in cells
T8 sequence (Q8N543 whole entry): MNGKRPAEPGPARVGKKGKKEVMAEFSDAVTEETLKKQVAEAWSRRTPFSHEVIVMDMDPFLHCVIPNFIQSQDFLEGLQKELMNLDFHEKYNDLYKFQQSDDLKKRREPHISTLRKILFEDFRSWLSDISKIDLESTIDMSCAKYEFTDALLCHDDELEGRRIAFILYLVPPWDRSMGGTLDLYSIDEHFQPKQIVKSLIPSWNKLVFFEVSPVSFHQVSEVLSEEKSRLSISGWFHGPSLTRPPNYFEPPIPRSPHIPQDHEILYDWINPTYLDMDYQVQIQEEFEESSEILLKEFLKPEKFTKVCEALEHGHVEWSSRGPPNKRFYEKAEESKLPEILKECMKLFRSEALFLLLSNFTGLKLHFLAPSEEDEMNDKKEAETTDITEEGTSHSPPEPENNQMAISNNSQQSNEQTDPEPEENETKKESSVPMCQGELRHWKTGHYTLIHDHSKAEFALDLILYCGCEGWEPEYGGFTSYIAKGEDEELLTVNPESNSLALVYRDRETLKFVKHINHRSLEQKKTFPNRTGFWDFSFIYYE
Excerpt: as §1, §2, §3

For O=C(O)CNC(=O)C1C(=O)OC2(CCNCC2)OC1=O [compound A, 2-(2,4-dioxo-1,5-dioxa-9-azaspiro[5.5]undecane-3-carboxamido)acetic acid hydrochloride], the remaining binding at 100 µM (FTO; Jurkat nuclear lysate) was 8%, the remaining binding at 100 µM (FTO; K-562 nuclear lysate) was 19% and the remaining binding at 100 µM (PLOD1; Jurkat nuclear lysate) was 91%. The remaining binding at 100 µM (PLOD1; K-562 nuclear lysate) was 35%, the remaining binding at 100 µM (ALKBH3; HL-60 nuclear lysate) was 36% and the remaining binding at 100 µM (ALKBH3; Jurkat nuclear lysate) was 32%. For the same compound, the remaining binding at 100 µM (P4HA2; HL-60 nuclear lysate) was 279%, the remaining binding at 100 µM (P4HA2; Jurkat nuclear lysate) was 136% and the remaining binding at 100 µM (P4HA2; K-562 nuclear lysate) was 28%. It also gave a remaining binding at 100 µM (LEPRE1; HL-60 nuclear lysate) of 126%, a remaining binding at 100 µM (LEPRE1; Jurkat nuclear lysate) of 90% and a remaining binding at 100 µM (LEPRE1; K-562 nuclear lysate) of 100%. The remaining binding at 100 µM (TMLHE; HL-60 nuclear lysate) was 104%, the remaining binding at 100 µM (TMLHE; Jurkat nuclear lysate) was 49% and the remaining binding at 100 µM (TMLHE; K-562 nuclear lysate) was 50%. For the same compound, the remaining binding at 100 µM (EGLN2; HL-60 nuclear lysate) was 124%, the remaining binding at 100 µM (EGLN2; Jurkat nuclear lysate) was 123% and the remaining binding at 100 µM (EGLN2; K-562 nuclear lysate) was 75%. It also gave a remaining binding at 100 µM (OGFOD1; HL-60 nuclear lysate) of 50%, a remaining binding at 100 µM (OGFOD1; Jurkat nuclear lysate) of 30% and a remaining binding at 100 µM (OGFOD1; K-562 nuclear lysate) of 19%.
